Laboratory results as given in ChEMBL document CHEMBL4819146, “Optimization of physicochemical properties of pyridone-based EP3 receptor antagonists” (Bioorg Med Chem Lett, 2021).

Key:
[1] = Oral bioavailability in Sprague-Dawley rat at 20 mg/kg; assay type: ADME, organism-based; details: in vivo
[2] = Cmax in Sprague-Dawley rat at 20 mg/kg, po; assay type: ADME, organism-based; set-up: route oral, dose 20 mg/kg; details: in vivo
[3] = AUC in Sprague-Dawley rat at 20 mg/kg, po; assay type: ADME, organism-based; set-up: dose 20 mg/kg; details: in vivo
[4] = Volume of distribution at steady state in Sprague-Dawley rat at 2 mg/kg, iv; assay type: ADME, organism-based; details: in vivo, read-out: Vdss
[5] = Apparent permeability from apical to basolateral side in dog MDCK cells; assay type: ADME, cell-based, Canis lupus familiaris

Row | SMILES | F [1] [%] | Cmax [2] [ng/mL] | AUC [3] [ng·h/mL] | Vd [4] [L/kg] | Papp A→B [5] [×10⁻⁶ cm/s]
1 | CCn1ncc2c(F)cc(-c3ccc(C(CC)(CC)c4nnc[nH]4)c(=O)[nH]3)cc21 | 81.6 | 5120 | 59653 | 0.5 | 
2 | CC(C)C(c1nnc[nH]1)c1ccc(-c2ccc3cccc(F)c3c2)[nH]c1=O (configuration not stated) |  | 409 | 4242 | 1.98 | 
3 | CC(C)C(c1noc(=O)[nH]1)c1ccc(-c2ccc3cccc(F)c3c2)[nH]c1=O (configuration not stated) | 47.8 | 6960 | 15775 | 0.21 | 25.3
